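Step 1: Grow cells in 96-well plates. Step 2: Expose to compound for 48 hours at 5 concentrations. Step 3: Interpolate endpoints linearly; if unreached, use highest concentration. Here, GI50 denotes the concentration required for 50% inhibition of growth. TGI: concentration producing complete growth inhibition.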
Columns and labels:
Test in all cases: growth of human tumour cells (NCI), 48 h
[1] = test system: A498 renal
[2] = test system: SK-MEL-28 melanoma
[3] = test system: SK-MEL-5 melanoma
[4] = test system: HCT-15 colon
[5] = test system: PC-3 prostate
[6] = test system: SK-MEL-2 melanoma
[7] = test system: MCF7 breast
[8] = test system: UACC-62 melanoma
[9] = test system: HL-60(TB) leukemia
[10] = test system: NCI-H522 lung
[11] = test system: HCC-2998 colon
[12] = test system: SW-620 colon
[13] = test system: MDA-MB-435
[14] = test system: HOP-62 NSCLC
[15] = test system: NCI-H23 lung
[16] = test system: BT-549 breast
[17] = test system: M14 melanoma
[18] = test system: NCI-H460 lung
[19] = test system: SF-539 CNS
[20] = test system: A549 NSCLC
[21] = test system: RXF 393 renal
[22] = test system: OVCAR-8 ovarian
[23] = test system: SN12C renal
[24] = test system: U251 CNS
[25] = test system: CAKI-1 renal
[26] = test system: T-47D breast
[27] = test system: EKVX NSCLC
[28] = test system: UO-31 renal
[29] = test system: 786-0 renal
[30] = test system: ACHN renal
[31] = test system: NCI/ADR-RES ovarian
[32] = test system: MDA-MB-468 breast
[33] = test system: NCI-H226 lung
[34] = test system: SK-OV-3 ovarian
[35] = test system: OVCAR-4 ovarian
[36] = test system: MOLT-4 leukemia
[37] = test system: TK-10 renal
[38] = test system: MALME-3M melanoma
[39] = test system: SR leukemia
[40] = test system: OVCAR-5 ovarian
[41] = test system: HOP-92 NSCLC
[42] = test system: DU-145 prostate
[43] = test system: KM12 colon
[44] = test system: LOX IMVI melanoma
[45] = test system: IGROV1 ovarian
[46] = test system: CCRF-CEM leukemia
[47] = test system: SF-295 CNS
[48] = test system: HCT-116 colon
[49] = test system: K-562 leukemia
[50] = test system: SNB-19 CNS
[51] = test system: SF-268 CNS
[52] = test system: RPMI-8226 leukemia
[53] = test system: HS 578T breast
[54] = test system: OVCAR-3 ovarian
[55] = test system: COLO 205 colon
[56] = test system: MDA-MB-231 breast
[57] = test system: SNB-75 CNS
[58] = test system: UACC-257 melanoma

O=C(COc1ccc(NC(=O)Nc2ccccc2)cc1)N=Nc1c(O)[nH]c2ccc([N+](=O)[O-])cc12
GI50 [1]: 11.4 µM | TGI [1]: 32.5 µM | GI50 [2]: 1.79 µM | TGI [2]: 3.65 µM | GI50 [3]: 2.15 µM | TGI [3]: 5.09 µM | GI50 [4]: 99.8 µM | TGI [4]: > 100 µM | GI50 [5]: 2.05 µM | TGI [5]: 4.76 µM | GI50 [6]: 1.76 µM | TGI [6]: 3.46 µM | GI50 [7]: 1.94 µM | TGI [7]: 4.02 µM | GI50 [8]: 1.83 µM | TGI [8]: 3.92 µM | GI50 [9]: 8.08 µM | TGI [9]: > 100 µM | GI50 [10]: 1.61 µM | TGI [10]: 3.15 µM | GI50 [11]: 2.24 µM | TGI [11]: 5.15 µM | GI50 [12]: 1.69 µM | TGI [12]: 3.83 µM | GI50 [13]: 1.71 µM | TGI [13]: 3.26 µM | GI50 [14]: 2.42 µM | TGI [14]: 7.08 µM | GI50 [15]: 2.09 µM | TGI [15]: 4.27 µM | GI50 [16]: 1.89 µM | TGI [16]: 5.37 µM | GI50 [17]: 2.86 µM | TGI [17]: 11.3 µM | GI50 [18]: 1.89 µM | TGI [18]: 4.58 µM | GI50 [19]: 1.67 µM | TGI [19]: 3.14 µM | GI50 [20]: > 100 µM | TGI [20]: > 100 µM | GI50 [21]: 2.31 µM | TGI [21]: 6.01 µM | GI50 [22]: 1.89 µM | TGI [22]: 3.75 µM | GI50 [23]: 1.65 µM | TGI [23]: 3.3 µM | GI50 [24]: 1.71 µM | TGI [24]: 3.12 µM | GI50 [25]: 47.7 µM | TGI [25]: > 100 µM | GI50 [26]: 1.71 µM | TGI [26]: 3.6 µM | GI50 [27]: 5.02 µM | TGI [27]: 45.7 µM | GI50 [28]: > 100 µM | TGI [28]: > 100 µM | GI50 [29]: 5.69 µM | TGI [29]: 23.8 µM | GI50 [30]: 29.3 µM | TGI [30]: > 100 µM | GI50 [31]: > 100 µM | TGI [31]: > 100 µM | GI50 [32]: 1.85 µM | TGI [32]: 3.31 µM | GI50 [33]: 2.31 µM | TGI [33]: 5.94 µM | GI50 [34]: 5.45 µM | TGI [34]: 21 µM | GI50 [35]: 1.84 µM | TGI [35]: 3.96 µM | GI50 [36]: 2.37 µM | TGI [36]: 5.08 µM | GI50 [37]: 17.3 µM | TGI [37]: 38.4 µM | GI50 [38]: 1.63 µM | TGI [38]: 3.07 µM | GI50 [39]: 2.65 µM | TGI [39]: 6.32 µM | GI50 [40]: 4.11 µM | TGI [40]: > 100 µM | GI50 [41]: 1.76 µM | TGI [41]: 3.39 µM | GI50 [42]: 3.88 µM | TGI [42]: > 100 µM | GI50 [43]: 1.95 µM | TGI [43]: 3.96 µM | GI50 [44]: 1.7 µM | TGI [44]: 3.15 µM | GI50 [45]: 3.43 µM | TGI [45]: 15.5 µM | GI50 [46]: 2.45 µM | TGI [46]: 6.17 µM | GI50 [47]: 6.27 µM | TGI [47]: 32.8 µM | GI50 [48]: 1.72 µM | TGI [48]: 3.13 µM | GI50 [49]: 3.02 µM | TGI [49]: 7.65 µM | GI50 [50]: 1.98 µM | TGI [50]: 4.55 µM | GI50 [51]: 1.91 µM | TGI [51]: 4.08 µM | GI50 [52]: 5.39 µM | TGI [52]: > 100 µM | GI50 [53]: 2.09 µM | TGI [53]: 5.8 µM | GI50 [54]: 1.66 µM | TGI [54]: 3.18 µM | GI50 [55]: 1.94 µM | TGI [55]: 3.55 µM | GI50 [56]: 1.82 µM | TGI [56]: 3.41 µM | GI50 [57]: 1.46 µM | TGI [57]: 3.39 µM | GI50 [58]: 2.01 µM | TGI [58]: 4.91 µM

Source: PubChem BioAssay (NCI)
